This test deals with T1, UCP1 (Mus musculus, UniProt P12242).
T1 construct: Cellular oxygen consumption and UCP1-rependent respiration of primary brown adipocytes; endogenous in cells; host or cells: primary brown adipocytes differentiated from the interscapular brown adipose stromal vascular fraction of 2- to 6-day-old pups
T1 sequence (P12242 1-307): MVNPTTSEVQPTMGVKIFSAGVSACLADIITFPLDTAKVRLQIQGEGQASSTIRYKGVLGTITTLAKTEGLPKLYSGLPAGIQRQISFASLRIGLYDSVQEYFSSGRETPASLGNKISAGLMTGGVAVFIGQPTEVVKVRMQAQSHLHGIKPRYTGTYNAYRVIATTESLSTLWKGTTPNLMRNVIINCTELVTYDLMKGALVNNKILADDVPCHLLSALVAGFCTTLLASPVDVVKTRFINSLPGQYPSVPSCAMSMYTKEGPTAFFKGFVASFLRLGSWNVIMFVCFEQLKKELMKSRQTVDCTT
The test is described as follows: UCP1-dependent respiration in primary brown adipocytes (Seahorse XF24 oxygen consumption). It is filed as cell-based. The note with it: wild-type primary brown adipocytes; MYF compounds at 100 uM. On the procedure:
Primary brown adipocyte preparation and differentiation. Interscapular brown adipose stromal vascular fraction was obtained from 2- to 6-day-old pups as described in PMID: 30022159. Interscapular brown adipose was dissected, washed in PBS, minced, and digested for 45 min at 37° C. in PBS containing 1.5 mg ml^−1 collagenase B, 123 mM NaCl, 5 mM KCl, 1.3 mM CaCl2, 5 mM glucose, 100 mM HEPES, and 4% essentially fatty-acid-free BSA. Tissue suspension was filtered through a 40 µm cell strainer and centrifuged at 600 g for 5 min to pellet the SVF. The cell pellet was resuspended in adipocyte culture medium and plated. Cells were maintained at 37° C. in 10% CO2. Primary brown pre-adipocytes were counted and plated in the evening, 12 h before differentiation at 15,000 cells per well of a seahorse plate. Pre-adipocyte plating was scaled according to surface area. […]
Direct measure of UCP1-dependent respiration in brown adipocytes. […] Basal respiration was determined to be the oxygen consumption in the presence of substrate (1 mM sodium pyruvate) alone. Following determination of basal respiration, MYF compounds at 100 uM or vehicle was added to the cells and the respiration response measured immediately. […] Maximal respiration capacity was determined following addition of DNP (2 mM). […]

As to `C=CC(=O)Nc1cc(-c2ccncc2)ccc1C(=O)OC` [CP-A16, methyl 2-acrylamido-4-(pyridin-4-yl)benzoate], the UCP-1-dependent respiration result is given as “activation”.

In the case of `CCC(=O)Nc1cc(-c2ccnnc2)sc1C(=O)OC` [ZNL-06-123], the UCP-1-dependent respiration entry was “activation”.

For the origin of these results see patent publication US20230271932A1, “SMALL MOLECULE COVALENT ACTIVATORS OF UCP1” (Dana-Farber Cancer Institute, Inc., priority 2020, published 2023).
